Data: the NIST ThermoML archive (doi:10.1021/je800589e)

Experiment: xn = mol fraction of the nth substance listed
Settings: Ring tensiometer

CCN1CCCC1=O [1-ethyl-2-pyrrolidinone] + O
surface tension liquid-gas [mN/m]
Settings	293.15 K	298.15 K	303.15 K	313.15 K	323.15 K
x1 = 0.0002	65.16	62.84	60.76	58.13	53.44
x1 = 0.0005	59.61	57.85	55.95	53.14	50.14
x1 = 0.001	56.3	54.77	53.23	51	49
x1 = 0.01	48.62	47.51	46.59	45.11	43.84
x1 = 0.02	44.12	43.28	42.53	41.4	40.2
x1 = 0.05	43.48	42.53	41.79	40.32	39.26
x1 = 0.1	42.11	41.22	40.42	39.3	38.32
x1 = 0.2	40.9	40.09	39.35	38.43	37.22
x1 = 0.3	40.28	39.44	38.52	37.59	36.48
x1 = 0.4	39.63	38.73	37.87	36.87	35.72
x1 = 0.5	39.25	38.23	37.31	36.2	35.26
x1 = 0.6	38.6	37.89	36.94	35.83	34.86
x1 = 0.7	38.04	37.01	36.39	35.35	34.72
x1 = 0.8	37.71	36.63	35.9	35.08	34.35
x1 = 0.9	37.09	36.17	35.63	34.72	34
x1 = 1	36.48	35.65	35	34.35	33.61

O=C1CCCN1 [2-pyrrolidinone] + O
surface tension liquid-gas [mN/m]
Settings	293.15 K	298.15 K	303.15 K	313.15 K	323.15 K
x1 = 0.0002	60.4	58.9	57.3	55.4	53.2
x1 = 0.0006	55.69	54.6	53.93	52.2	51.05
x1 = 0.01	52.9	51.68	50.8	49.8	49.1
x1 = 0.015	52.4	51.19	50.23	49.3	48.7
x1 = 0.05	50.72	49.58	48.68	47.77	46.34
x1 = 0.07	50.26	49.28	48.45	47	45.89
x1 = 0.1	49.96	48.91	48	46.49	45.58
x1 = 0.2	48.91	48.08	47.09	45.89	45.13
x1 = 0.3	47.93	47.17	46.42	45.43	44.6
x1 = 0.4	47.54	46.87	46.19	45.28	44.53
x1 = 0.5	47.17	46.72	46.02	45.21	44.45
x1 = 0.6	47.1	46.64	45.81	44.91	44.15
x1 = 0.7	47.1	46.42	45.66	45	44.23
x1 = 0.8	46.94	46.42	45.66	44.68	43.85
x1 = 0.9	46.64	46.11	45.51	44.53	43.77
x1 = 1	46.31	45.81	45.22	44.12	43.19

CN1CCCC1=O [N-methylpyrrolidone] + O
surface tension liquid-gas [mN/m]
Settings	293.15 K	298.15 K	303.15 K	313.15 K	323.15 K
x1 = 0.0002	63.96	61.5	59.25	57	55
x1 = 0.0004	58.14	56.58	55.68	53.77	52.41
x1 = 0.0006	55.21	54.22	53.41	52.05	50.87
x1 = 0.001	53.5	52.86	52.23	51.05	50.14
x1 = 0.005	52.4	51.68	50.87	49.69	48.78
x1 = 0.01	51.6	50.78	50	48.87	48.05
x1 = 0.03	50.2	49.41	48.53	47.17	45.56
x1 = 0.1	49	48.29	47.49	46.34	44.6
x1 = 0.2	48.05	47.49	46.61	45.5	43.7
x1 = 0.4	46.05	45.42	44.94	44	42.4
x1 = 0.5	45.26	44.62	44	43.12	41.81
x1 = 0.6	44.46	43.82	43.1	42.3	41.18
x1 = 0.7	43.66	43	42.38	41.5	40.46
x1 = 0.8	42.78	42.14	41.66	40.78	39.74
x1 = 0.9	41.98	41.34	40.94	40.14	39.27
x1 = 1	41.26	40.8	40.38	39.64	38.68

O [water] + CCN1CCCC1=O
x2 = 0
Settings	surface tension liquid-gas [mN/m]
293.15 K	72.65
298.15 K	72.05
303.15 K	71.21
313.15 K	69.52
323.15 K	67.92

O [water] + CN1CCCC1=O
x2 = 0
Settings	surface tension liquid-gas [mN/m]
293.15 K	72.65
298.15 K	72.05
303.15 K	71.21
313.15 K	69.52
323.15 K	67.92

O [water] + O=C1CCCN1
x2 = 0
Settings	surface tension liquid-gas [mN/m]
293.15 K	72.65
298.15 K	72.05
303.15 K	71.21
313.15 K	69.52
323.15 K	67.92
